Assay results: patent publication US6369059B1, “Tetracyclic derivatives, process of preparation and use” (ICOS Corporation, priority 1994, dated 2002)

Row | melting point | SMILES
1 | 283 to 285 °C | O=C1NCC(=O)N2[C@@H](c3ccc4c(c3)OCO4)c3[nH]c4ccccc4c3C[C@H]12 (relative stereo) [Example 4, Cis-2,3,6,7,12,12a-Hexahydro-6-(3,4-methylenedioxyphenyl)-pyrazino[2′,1′:6,1]pyrido[3,4-b]indole-1,4-dione]
2 | 285 to 286 °C | O=C1[C@H]2Cc3c([nH]c4ccccc34)[C@H](c3ccc4c(c3)OCO4)N2C(=O)CN1Cc1ccccn1 (relative stereo) [Example 10, Cis-2,3,6,7,12,12a-Hexahydro-2-(2-pyridylmethyl)-6-(3,4-methylenedioxyphenyl)-pyrazino[2′,1′:6,1]pyrido[3,4-b]indole-1,4-dione]
3 | 270 to 271 °C | CCCN1CC(=O)N2[C@@H](c3ccc4c(c3)OCO4)c3[nH]c4ccccc4c3C[C@@H]2C1=O (relative stereo) [Example 15, Cis-2,3,6,7,12,12a-Hexahydro-6-(3,4-methylenedioxyphenyl)-2-propyl-pyrazino[2′,1′:6,1]pyrido[3,4-b]indole-1,4-dione]
4 | 290 to 292 °C | O=C1[C@H]2Cc3c([nH]c4ccccc34)[C@H](c3ccc4c(c3)OCO4)N2C(=O)CN1C1CC1 (relative stereo) [Example 17, Cis-2,3,6,7,12,12a-Hexahydro-2cyclopropyl-6-(3,4-methylenedioxyphenyl)-pyrazino[2′,1′:6,1]pyrido[3,4-b]indole-1,4-dione]
5 | 241 to 243 °C | CCCCN1CC(=O)N2[C@@H](c3ccc4c(c3)OCO4)c3[nH]c4ccccc4c3C[C@@H]2C1=O (relative stereo) [Example 18, Cis-2,3,6,7,12,12a-Hexahydro-2-butyl-6-(3,4-methylenedioxyphenyl)-pyrazino[2′,1′:6,1]pyrido[3,4-b]indole-1,4-dione]
6 | 217 to 218 °C | O=C1[C@H]2Cc3c([nH]c4ccccc34)[C@H](c3ccc4c(c3)OCO4)N2C(=O)CN1CC1CC1 (relative stereo) [Example 20, Cis-2,3,6,7,12,12a-Hexahydro-2-cyclopropylmethyl-6-(3,4-methylenedioxyphenyl)-pyrazino[2′,1′:6,1]pyrido[3,4-b]indole-1,4-dione]
7 | 270 °C | O=C1[C@H]2Cc3c([nH]c4ccccc34)[C@H](c3ccc4c(c3)OCO4)N2C(=O)CN1C1CCCC1 (relative stereo) [Example 21, Cis-2,3,6,7,12,12a-Hexahydro-2-cyclopentyl-6-(3,4-methylenedioxyphenyl)-pyrazino[2′,1′:6,1]pyrido[3,4-b]indole-1,4-dione]
8 | 303 to 305 °C | CN1CC(=O)N2[C@@H](c3ccc4c(c3)OCCO4)c3[nH]c4ccccc4c3C[C@@H]2C1=O (relative stereo) [Example 38, Cis-2,3,6,7,12,12a-Hexahydro-6-(3,4-ethylenedioxyphenyl)-2-methyl-pyrazino[2′,1′:6,1]pyrido[3,4-b]indole-1,4-dione]

The remaining lines, values behind:

Row | SMILES | melting point
9 | O=C1[C@H]2Cc3c([nH]c4ccccc34)[C@H](c3ccc4c(c3)OCO4)N2C(=O)CN1Cc1ccc(F)cc1 (relative stereo) [Example 24, Cis-2,3,6,7,12,12a-Hexahydro-2-(4-fluorobenzyl)6-(3,4-methylenedioxyphenyl)-pyrazino[2′,1′:6,1]pyrido[3,4-b]indole-1,4-dione] | 281 to 283 °C
10 | COc1ccc([C@H]2c3[nH]c4ccccc4c3C[C@H]3C(=O)N(C)CC(=O)N23)cc1 (relative stereo) [Example 26, Trans-2,3,6,7,12,12a-Hexahydro-6-(4-methoxyphenyl)-2-methyl-pyrazino[2′,1′:6,1]pyrido[3,4-b]indole-1,4-dione] | 225 to 228 °C
11 | CCN1CC(=O)N2[C@@H](c3ccc(OC)cc3)c3[nH]c4ccccc4c3C[C@@H]2C1=O (relative stereo) [Example 27, Cis-2,3,6,7,12,12a-Hexahydro-2-ethyl-6(4-methoxyphenyl)-pyrazino[2′,1′:6,1]pyrido[3,4-b]indole-1,4-dione] | 245 to 255 °C
12 | CCCCN1CC(=O)N2[C@@H](c3ccc(OC)cc3)c3[nH]c4ccccc4c3C[C@@H]2C1=O (relative stereo) [Example 29, Cis-2,3,6,7,12,12a-Hexahydro-2-butyl-6-(4-methoxyphenyl)-pyrazino[2′,1′:6,1]pyrido[3,4-b]indole-1,4-dione] | 157 °C
13 | CCCCN1CC(=O)N2[C@@H](c3ccc(OC)cc3)c3[nH]c4ccccc4c3C[C@H]2C1=O (relative stereo) [Example 30, Trans-2,3,6,7,12,12a-Hexahydro-2-butyl-6-(4-methoxyphenyl)-pyrazino[2′,1′:6,1]pyrido[3,4-b]indole-1,4-dione] | 212 to 214 °C
14 | COc1cccc([C@H]2c3[nH]c4ccccc4c3C[C@@H]3C(=O)N(C)CC(=O)N23)c1 (relative stereo) [Example 33, Cis-2,3,6,7,12,12a-Hexahydro-6-(3-methoxyphenyl)-2-methyl-pyrazino[2′,1′:6,1]pyrido[3,4-b]indole-1,4-dione] | 267 to 269 °C
15 | CCOc1ccc([C@H]2c3[nH]c4ccccc4c3C[C@@H]3C(=O)N(C)CC(=O)N23)cc1 (relative stereo) [Example 34, Cis-2,3,6,7,12,12a-Hexahydro-6-(4-ethoxyphenyl)-2methyl-pyrazino[2′,1′:6,1]pyrido[3,4-b]indole-1,4-dione] | 247 to 248 °C
16 | CCCCN1CC(=O)N2[C@@H](c3ccc(Cl)cc3)c3[nH]c4ccccc4c3C[C@@H]2C1=O (relative stereo) [Example 42, Cis-2,3,6,7,12,12a-Hexahydro-2-butyl-6-(4-chlorophenyl)-pyrazino[2′,1′:6,1]pyrido[3,4-b]indole-1,4-dione] | 164 to 166 °C
17 | CN1CC(=O)N2[C@@H](c3ccc(Cl)c(Cl)c3)c3[nH]c4ccccc4c3C[C@@H]2C1=O (relative stereo) [Example 43, Cis-2,3,6,7,12,12a-Hexahydro-6-(3,4-dichlorophenyl)-2-methyl-pyrazino[2′,1′:6,1]pyrido[3,4-b]indole-1,4-dione] | > 260 °C
18 | CCCCN1CC(=O)N2[C@@H](c3ccccc3)c3[nH]c4ccccc4c3C[C@@H]2C1=O (relative stereo) [Example 44, Cis-2,3,6,7,12,12a-Hexahydro-2-butyl-6-phenyl-pyrazino[2′,1′:6,1]pyrido[3,4-b]indole-1,4-dione] | 243 to 245 °C
19 | O=C1[C@@H]2Cc3c([nH]c4ccccc34)[C@H](c3ccccc3)N2C(=O)CN1Cc1ccccc1 (relative stereo) [Example 46, Trans-2,3,6,7,12,12a-Hexahydro-2-benzyl-6-phenyl-pyrazino[2′,1′:6,1]pyrido[3,4-b]indole-1,4-dione] | 284 °C
20 | CN1CC(=O)N2[C@@H](c3ccc4ccccc4c3)c3[nH]c4ccccc4c3C[C@@H]2C1=O (relative stereo) [Example 50, Cis-2,3,6,7,12,12a-Hexahydro-2-methyl-6-(2-naphthyl)-pyrazino[2′,1′:6,1]pyrido[3,4-b]indole-1,4-dione] | > 260 °C
21 | CCCCN1CC(=O)N2[C@@H](c3cccs3)c3[nH]c4ccccc4c3C[C@@H]2C1=O (relative stereo) [Example 51, Cis-2,3,6,7,12,12a-Hexahydro-2-butyl-6-(2-thienyl)-pyrazino[2′,1′:6,1]pyrido[3,4-b]indole-1,4-dione] | 226 °C
